Experiments:
Type in all cases: in vivo
ABUTH = test: Post-emergence herbicidal action; conditions: 320 g/ha, assessed after about 3 weeks
Procedure: (§1) Seeds of monocotyledonous and dicotyledonous weed and crop plants are laid out in sandy loam soil in wood-fiber pots, covered with soil and cultivated in a greenhouse under good growth conditions. 2 to 3 weeks after sowing, the test plants are treated at the one-leaf stage. The compounds of the invention, formulated in the form of wettable powders (WP) or as emulsion concentrates (EC), are then sprayed onto the green parts of the plants in the form of an aqueous suspension or emulsion at a water application rate equating to 600 to 800 l/ha, with addition of 0.2% wetting agent. After the test plants have been left to stand in the greenhouse under optimal growth conditions for about 3 weeks, the action of the preparations is assessed visually in comparison to untreated controls (herbicidal action in percent (%): 100% activity=the plants have died, 0% activity=like control plants). […] At the same time, inventive compounds leave Gramineae crops such as barley, wheat, rye, millet/sorghum, corn or rice virtually undamaged when applied post-emergence, even at high active ingredient dosages. In addition, some substances are also harmless to dicotyledonous crops such as soya, cotton, oilseed rape, sugar beet or potatoes. Some of the compounds according to the invention have high selectivity and are therefore suitable for controlling unwanted vegetation in agricultural crops by the post-emergence method. The tables below illustrate, in an exemplary manner, the post-emergence herbicidal action of the compounds according to the invention, the herbicidal activity being stated in percent.

AMARE [1] = test: Post-emergence herbicidal action; conditions: 320 g/ha, assessed after about 3 weeks
Procedure: as §1

ECHCG [2] = test: Pre-emergence herbicidal action; conditions: Table 4, pre-emergence (PE), 320 g/ha, scored after 3 weeks
Description: (§2) Seeds of monocotyledonous and dicotyledonous weed plants and crop plants are laid out in sandy loam soil in wood-fiber pots and covered with soil. The compounds of the invention, formulated in the form of wettable powders (WP) or as emulsion concentrates (EC), are then applied to the surface of the covering soil in the form of an aqueous suspension or emulsion at a water application rate equating to 600 to 800 I/ha, with addition of 0.2% wetting agent. After the treatment, the pots are placed in a greenhouse and kept under good growth conditions for the trial plants. The damage to the test plants is scored visually after a test period of 3 weeks by comparison with untreated controls (herbicidal activity in percent (%): 100% activity=the plants have died, 0% activity=like control plants).
(§3) At the same time, inventive compounds leave Gramineae crops such as barley, wheat, rye, millet/sorghum, corn or rice virtually undamaged when applied pre-emergence, even at high active ingredient dosages. In addition, some substances are also harmless to dicotyledonous crops such as soya, cotton, oilseed rape, sugar beet or potatoes. […] The tables below illustrate, in an exemplary manner, the pre-emergence herbicidal action of the compounds according to the invention, the herbicidal activity being stated in percent.

AMARE [3] = test: Pre-emergence herbicidal action; conditions: Table 4, pre-emergence (PE), 320 g/ha, scored after 3 weeks
Description: as §2, §3

SETVI = test: Post-emergence herbicidal action; conditions: 320 g/ha, assessed after about 3 weeks
Procedure: as §1

STEME = test: Post-emergence herbicidal action; conditions: Table 6, post-emergence (PO), 320 g/ha, assessed after about 3 weeks
Procedure: as §1

ECHCG [4] = test: Post-emergence herbicidal action; conditions: 320 g/ha, assessed after about 3 weeks
Procedure: as §1

Row | SMILES | Herbicidal action against ECHCG (ECHCG [2]) [%] | Herbicidal action against AMARE (AMARE [3]) [%] | Herbicidal action against ABUTH (ABUTH; Table 6, post-emergence (PO)) [%] | Herbicidal action against SETVI (SETVI; Table 6, post-emergence (PO)) [%] | Herbicidal action against AMARE (AMARE [1]; Table 6, post-emergence (PO)) [%] | Herbicidal action against STEME (STEME) [%] | other results
1 | Nc1cc(-c2ccc3ccsc3c2)nc(C(=O)OCc2ccc(F)c(F)c2F)c1Cl [Example I-46] | 60 | 100 | – | – | – | – | Herbicidal action against ABUTH (ABUTH; Table 9, post-emergence (PO)): 90%; Herbicidal action against AMARE (AMARE [1]; Table 9, post-emergence (PO)): 100%
2 | COc1c(Cl)ccc(Cl)c1COC(=O)c1nc(-c2ccc3occc3c2)cc(N)c1Cl [Example I-57] | – | – | 90 | 80 | 100 | 70 | –
3 | Nc1c(F)c(-c2ccc3occc3c2)nc(C(=O)OCc2ccc(F)cc2F)c1Cl [Example I-48] | 10 | 90 | 90 | 30 | 90 | 80 | –
4 | Nc1cc(-c2ccc3ncsc3c2)nc(C(=O)OCc2cccc(Cl)c2)c1Cl [Example I-60] | – | – | – | – | – | – | Herbicidal action against ECHCG (ECHCG [4]; Table 7, post-emergence (PO)): 90%; Herbicidal action against ECHCG (ECHCG [4]; Table 8, post-emergence (PO)): 90%; Herbicidal action against ABUTH (ABUTH; Table 7, post-emergence (PO)): 90%; Herbicidal action against ABUTH (ABUTH; Table 8, post-emergence (PO)): 90%; Herbicidal action against SETVI (SETVI; Table 7, post-emergence (PO)): 80%; Herbicidal action against SETVI (SETVI; Table 8, post-emergence (PO)): 80%; Herbicidal action against AMARE (AMARE [1]; Table 7, post-emergence (PO)): 80%; Herbicidal action against AMARE (AMARE [1]; Table 8, post-emergence (PO)): 80%
5 | Nc1cc(-c2ccc3occc3c2)nc(C(=O)OCc2ccc(F)cc2F)c1Cl [Example I-24] | 60 | 90 | 100 | 80 | 100 | 80 | –
6 | COc1c(F)ccc(COC(=O)c2nc(-c3ccc4occc4c3)cc(N)c2Cl)c1F [Example I-17] | 90 | 100 | – | – | – | – | Herbicidal action against ECHCG (ECHCG [4]; Table 7, post-emergence (PO)): 90%; Herbicidal action against ECHCG (ECHCG [4]; Table 8, post-emergence (PO)): 90%; Herbicidal action against ABUTH (ABUTH; Table 7, post-emergence (PO)): 90%; Herbicidal action against ABUTH (ABUTH; Table 8, post-emergence (PO)): 90%; Herbicidal action against SETVI (SETVI; Table 7, post-emergence (PO)): 100%; Herbicidal action against SETVI (SETVI; Table 8, post-emergence (PO)): 100%; Herbicidal action against AMARE (AMARE [1]; Table 7, post-emergence (PO)): 100%; Herbicidal action against AMARE (AMARE [1]; Table 8, post-emergence (PO)): 100%
7 | Nc1c(F)c(-c2ccc3ccoc3c2)nc(C(=O)OCc2ccc(Cl)cc2Cl)c1Cl [Example I-51] | 20 | 70 | – | – | – | – | Herbicidal action against ABUTH (ABUTH; Table 9, post-emergence (PO)): 80%; Herbicidal action against AMARE (AMARE [1]; Table 9, post-emergence (PO)): 90%
8 | Nc1c(F)c(-c2cc3ccoc3cc2F)nc(C(=O)OCc2ccc(F)cc2)c1Cl [Example I-71] | – | – | – | – | – | – | Herbicidal action against ABUTH (ABUTH; Table 9, post-emergence (PO)): 40%; Herbicidal action against AMARE (AMARE [1]; Table 9, post-emergence (PO)): 80%
9 | Nc1c(F)c(-c2ccc3sccc3c2)nc(C(=O)OCc2ccc(F)cc2F)c1Cl [Example I-56] | 30 | 80 | 80 | 80 | 90 | 90 | –
10 | Nc1c(F)c(-c2ccc3ncsc3c2)nc(C(=O)OCc2ccc(Cl)cc2)c1Cl [Example I-64] | – | – | 90 | 90 | 90 | 40 | –
11 | Nc1c(F)c(-c2ccc3sccc3c2)nc(C(=O)OCc2c(F)cc(F)cc2F)c1Cl [Example I-59] | 30 | 80 | 90 | 80 | 90 | 90 | –
12 | Nc1cc(-c2ccc3ccoc3c2F)nc(C(=O)OCc2cccc(Cl)c2)c1Cl [Example I-33] | 20 | 90 | 90 | 80 | 100 | 90 | –
13 | Nc1c(F)c(-c2ccc3ccsc3c2)nc(C(=O)OCc2ccc(Cl)cc2)c1Cl [Example I-45] | 40 | 100 | 90 | 30 | 90 | 90 | –
14 | COc1c(F)ccc(COC(=O)c2nc(-c3ccc4ccoc4c3)cc(N)c2Cl)c1F [Example I-28] | 90 | 100 | 100 | 100 | 100 | 100 | –
15 | Nc1cc(-c2ccc3ccoc3c2)nc(C(=O)OCc2cc(F)c(F)cc2F)c1Cl [Example I-27] | 60 | 100 | 90 | 80 | 100 | 100 | –
16 | Nc1cc(-c2ccc3ncsc3c2)nc(C(=O)OCc2ccc(F)cc2F)c1Cl [Example I-39] | – | – | 100 | 100 | 90 | 70 | –
17 | Nc1c(F)c(-c2ccc3occc3c2)nc(C(=O)OCc2ccc(Cl)cc2Cl)c1Cl [Example I-63] | – | – | – | – | – | – | Herbicidal action against ABUTH (ABUTH; Table 9, post-emergence (PO)): 80%; Herbicidal action against AMARE (AMARE [1]; Table 9, post-emergence (PO)): 80%
18 | Nc1c(F)c(-c2cc3ccoc3cc2F)nc(C(=O)OCc2ccc(Cl)cc2)c1Cl [Example I-68] | – | – | – | – | – | – | Herbicidal action against ABUTH (ABUTH; Table 9, post-emergence (PO)): 80%; Herbicidal action against AMARE (AMARE [1]; Table 9, post-emergence (PO)): 80%
19 | Nc1c(F)c(-c2cc3ccsc3cc2F)nc(C(=O)OCc2ccc(Cl)cc2)c1Cl [Example I-58] | – | – | – | – | – | – | Herbicidal action against ABUTH (ABUTH; Table 9, post-emergence (PO)): 90%; Herbicidal action against AMARE (AMARE [1]; Table 9, post-emergence (PO)): 100%
20 | Nc1cc(-c2ccc3ccoc3c2)nc(C(=O)OCc2ccc(F)cc2)c1Cl [Example I-26] | 70 | 100 | 100 | 100 | 100 | 100 | –
21 | Nc1cc(-c2ccc3ccoc3c2)nc(C(=O)OCc2ccc(F)c(F)c2F)c1Cl [Example I-23] | 90 | 100 | 90 | 90 | 100 | 100 | –
22 | Nc1cc(-c2ccc3ccsc3c2)nc(C(=O)OCc2ccccc2Cl)c1Cl [Example I-44] | 60 | 90 | 100 | 60 | 100 | 100 | –
23 | Nc1cc(-c2ccc3occc3c2)nc(C(=O)OCc2cccc(Cl)c2)c1Cl [Example I-38] | – | – | 100 | 90 | 100 | 100 | –
24 | Nc1cc(-c2ccc3occc3c2)nc(C(=O)OCc2ccccc2[N+](=O)[O-])c1Cl [Example I-62] | – | – | – | – | – | – | Herbicidal action against ABUTH (ABUTH; Table 9, post-emergence (PO)): 100%; Herbicidal action against AMARE (AMARE [1]; Table 9, post-emergence (PO)): 40%
25 | Nc1cc(-c2ccc3ccoc3c2F)nc(C(=O)OCc2ccc(Cl)cc2)c1Cl [Example I-49] | – | – | 90 | 80 | 100 | 90 | –
26 | Nc1cc(-c2ccc3occc3c2)nc(C(=O)OCc2ccccc2C(F)(F)F)c1Cl [Example I-37] | 90 | 100 | 100 | 90 | 100 | 100 | –
27 | Nc1cc(-c2ccc3ncsc3c2)nc(C(=O)OCc2ccc(Cl)cc2)c1Cl [Example I-69] | – | – | – | – | – | – | Herbicidal action against ECHCG (ECHCG [4]; Table 7, post-emergence (PO)): 90%; Herbicidal action against ECHCG (ECHCG [4]; Table 8, post-emergence (PO)): 90%; Herbicidal action against ABUTH (ABUTH; Table 7, post-emergence (PO)): 90%; Herbicidal action against ABUTH (ABUTH; Table 8, post-emergence (PO)): 90%; Herbicidal action against SETVI (SETVI; Table 7, post-emergence (PO)): 80%; Herbicidal action against SETVI (SETVI; Table 8, post-emergence (PO)): 80%; Herbicidal action against AMARE (AMARE [1]; Table 7, post-emergence (PO)): 100%; Herbicidal action against AMARE (AMARE [1]; Table 8, post-emergence (PO)): 100%

Source: patent publication US20200187499A1, “SUBSTITUTED BENZYL-4-AMINOPICOLINIC ESTERS AND PYRIMIDINO-4-CARBOXYLIC ESTERS, METHODS FOR THE PRODUCTION THEREOF, AND USE THEREOF AS HERBICIDES AND PLANT GROWTH REGULATORS” (Bayer CropScience Aktiengesellschaft, priority 2017, published 2020)
